The values below come from patent US10316057B2, “Tandem facial amphiphiles” (WISCONSIN ALUMNI RESEARCH FOUNDATION, priority 2011, dated 2019).

One data set has as its target T1, Bacteriorhodopsin (bR) (Halobacterium salinarum, UniProt P02945).
T1 construct: extract bR from the native purple membrane; endogenous in cells
T1 sequence (P02945 14-261 limits assumed): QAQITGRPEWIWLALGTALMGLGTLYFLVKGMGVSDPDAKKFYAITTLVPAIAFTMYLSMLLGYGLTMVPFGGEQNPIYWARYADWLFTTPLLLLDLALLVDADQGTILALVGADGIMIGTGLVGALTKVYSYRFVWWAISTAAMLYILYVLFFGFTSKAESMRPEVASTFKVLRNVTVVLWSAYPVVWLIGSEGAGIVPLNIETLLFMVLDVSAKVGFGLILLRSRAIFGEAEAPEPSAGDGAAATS
Briefly: Stabilization assay for bacteriorhodopsin (absorbance at 554 nm). The following applies: room temperature, 20 days; 0.2 wt % OTG+0.8 wt % TFA or 1.0 wt % OTG only. On the procedure:
Bacteriorhodopsin (bR) has been widely employed for assessment of new amphiphiles because this membrane protein is readily available, and stability can be assessed via spectrophotometry (absorbance at 554 nm). Following standard protocols (Bazzacco et al., Biomacromolecules 2009, 10, 3317-3326), 2.0 wt % octyl-β-D-thioglucoside (OTG) was used to extract bR from the native purple membrane. After removal of insoluble debris via ultracentrifugation, the bR solution was diluted with amphiphile-containing solutions to generate samples containing 0.2 wt % OTG+0.8 wt % TFA. A control sample had OTG added to give a total of 1.0 wt %. […] Parallel studies were carried out at different amphiphile concentrations as described in Example 3 below. DDM is not efficient at bR extraction from the native membrane but extracted bR can be stable in the presence of DDM (Milder et al., Biochemistry 1991, 30, 1751-1761).
The general procedure was followed according to the reported protocol of Bazzacco et al. (Biomacromolecules 10, 3317-3326 (2009)). Frozen aliquots of purple membranes containing bR at 184 μM were thawed and solubilized by incubation with octylthioglucoside (OTG) for 24 hr at 4° C. in a dark room. For the solubilization, OTG (CMC=0.28 wt %) was used at 2.0 wt % in 10 mM sodium phosphate (pH 6.9). […] BR stability in each TFA solutions was monitored by measuring absorbance at 554 nm for 20 days.

For data set [1] the following is noted: stated in the bR protocol; cited from earlier work.
In another data set the test system is T2, LHI-RC superassembly.
T2 construct: The LHI-RC superassembly was extracted from native membranes with 1.0 wt % DDM; made in house; host or cells: Rhodobacter capsulatus U43[pUHTM86Bgl]; (lacks LHII), photosynthetic membranes
Briefly: Stabilization assay for R. capsulatus superassembly (A875/A680). On the set-up: species or system Rhodobacter capsulatus. The following applies: room temperature, 20 days, CMC+0.04 wt %, relative to DDM. An excerpt:
The promising results with bR stabilization led to investigating a more challenging system, the photosynthetic superassembly formed by the light harvesting I (LHI) and reaction center (RC) complexes from Rhodobacter capsulatus (Laible et al., Biochemistry 2003, 42, 1718-1730). This superassembly contains 30-40 protein molecules (five different components), and maintenance of native quaternary structure can be assessed via spectrophotometry. The LHI-RC superassembly was extracted from native membranes with 1.0 wt % DDM and purified with DDM at its CMC (0.009 wt %). […]
Resin-retaining spin columns (e.g., emptied His SpinTrap™ columns; GE Healthcare) were inserted into a 2 mL microcentrifuge tube and the samples were then loaded onto the column. […] The protein was collected by eluting with two 0.25 mL elution buffer aliquots (this buffer was identical to binding buffer with the addition to 1 M of imidazole; the pH of each solution was checked and readjusted to pH=7.8). […]
UV-Vis spectra of these solutions were measured in regular intervals. FIG. 9 illustrates the time course of stability of R. capsulatus superassembly, evaluated at room temperature. […] Absorbance ratio (A875/A680) was followed for the stability evaluation of the membrane protein. […] FIG. 10 illustrates the absorbance spectrum of R. capsulatus superassembly in TFA-1 (a,c) and DDM (b,d) at room temperature (˜23° C.). […]

For the compound `CCCCCCCCS[C@@H]1O[C@H](CO)[C@@H](O)[C@H](O)[C@H]1O` [OTG, octyl-β-D-thioglucoside, reference compound], the “bR stability over time” value on Bacteriorhodopsin (bR) was “almost completely denatured by day 10”. For the same compound, the CMC in data set [1] was 0.28 wt %. Turning to `CCCCCCCCCCCC[N+](C)(C)[O-]` [lauryldimethylamine oxide], in the data set on LHI-RC superassembly, the “stability of LHI-RC superassembly” value is recorded as “rapid degradation of the superassembly”.

For `CCCCCCCCO[C@@H]1O[C@H](CO)[C@@H](O)[C@H](O)[C@H]1O` [octyl-glucoside], the “stability of LHI-RC superassembly” value in the data set on LHI-RC superassembly is recorded as “rapid degradation of the superassembly”.
